From patent EP4635500A1, “THERAPEUTIC AGENT FOR BACTERIAL INFECTION” (Sumitomo Pharma Co., Ltd., priority 2022, dated 2024)
≈ marks a conversion by molar mass, not a printed value. Read-outs that look alike come from different tables or passages of the source.

Test system: Enterobacterales
Assay: MIC, broth microdilution, CDC/FDA Antibiotic Resistance Isolate Bank (Example 7, Tables 8, 11, 12)
Format: cell-based

CC(C)(O/N=C(\C(=O)N[C@@H]1C(=O)N2C(C(=O)[O-])=C(C[N+]3(CCNC(=O)c4ccc(O)c(O)c4Cl)CCCC3)CS[C@H]12)c1csc(N)n1)C(=O)O [Cefiderocol, cefiderocol]
MIC50 (154 strains of Enterobacterales, read-out: MIC50): 0.5 µg/mL (≈ 0.665 µM)
MIC80 (154 strains of Enterobacterales, read-out: MIC80): 1 µg/mL (≈ 1.33 µM)
MIC90 (154 strains of Enterobacterales, read-out: MIC90): 2 µg/mL (≈ 2.66 µM)
MIC (Citrobacter freundii, KUB No. 5654, AR Bank # 157, read-out: MIC): 1 µg/mL (≈ 1.33 µM)
MIC (Enterobacter cloacae, Enterobacter cloacae KUB No. 5792, AR Bank #448, read-out: MIC): 2 µg/mL (≈ 2.66 µM)
MIC (Enterobacter cloacae, Enterobacter cloacae KUB No. 5807, AR Bank #501, read-out: MIC): 1 µg/mL (≈ 1.33 µM)
MIC (Enterobacter cloacae, Enterobacter cloacae KUB No. 5808, AR Bank #502, read-out: MIC): 1 µg/mL (≈ 1.33 µM)
MIC (Enterobacter cloacae, Enterobacter cloacae complex, KUB No. 5661, AR Bank # 164, read-out: MIC): 0.5 µg/mL (≈ 0.665 µM)
MIC (Enterobacter cloacae, Enterobacter cloacae group, KUB No. 5629, AR Bank # 132, read-out: MIC): 0.5 µg/mL (≈ 0.665 µM)
MIC (Enterobacter cloacae, KUB No. 5535, AR Bank# 38, read-out: MIC): 0.5 µg/mL (≈ 0.665 µM)
MIC (Enterobacter cloacae, KUB No. 5547, AR Bank# 50, read-out: MIC): 2 µg/mL (≈ 2.66 µM)
MIC (Enterobacter cloacae, KUB No. 5550, AR Bank# 53, read-out: MIC): 0.12 µg/mL (≈ 0.16 µM)
MIC (Enterobacter cloacae, KUB No. 5557, AR Bank# 60, read-out: MIC): 4 µg/mL (≈ 5.32 µM)
MIC (Enterobacter cloacae, KUB No. 5562, AR Bank # 65, read-out: MIC): 0.25 µg/mL (≈ 0.332 µM)
MIC (Enterobacter cloacae, KUB No. 5569, AR Bank # 72, read-out: MIC): 0.25 µg/mL (≈ 0.332 µM)
MIC (Enterobacter cloacae, KUB No. 5570, AR Bank # 73, read-out: MIC): 0.25 µg/mL (≈ 0.332 µM)
MIC (Enterobacter cloacae, KUB No. 5590, AR Bank # 93, read-out: MIC): 0.25 µg/mL (≈ 0.332 µM)
MIC (Enterobacter cloacae, KUB No. 5660, AR Bank # 163, read-out: MIC): 0.25 µg/mL (≈ 0.332 µM)
MIC (Enterobacter cloacae, KUB No. 5761, AR Bank # 365, read-out: MIC): 0.25 µg/mL (≈ 0.332 µM)
MIC (Enterobacter cloacae, KUB No. 5762, AR Bank # 366, read-out: MIC): 0.25 µg/mL (≈ 0.332 µM)
MIC (Enterobacter cloacae, KUB No. 5763, AR Bank # 367, read-out: MIC): 1 µg/mL (≈ 1.33 µM)
MIC (Enterobacter cloacae, KUB No. 5778, AR Bank # 432, read-out: MIC): 4 µg/mL (≈ 5.32 µM)
MIC (Enterobacter cloaccae, KUB No. 5651, AR Bank # 154, read-out: MIC): 4 µg/mL (≈ 5.32 µM)
MIC (Enterobacter clooreae, KUB No. 5633, AR Bank # 136, read-out: MIC): 0.25 µg/mL (≈ 0.332 µM)
MIC (Escherichia coli, Escherichia coli KUB No. 5783, AR Bank #437, read-out: MIC): 0.25 µg/mL (≈ 0.332 µM)
MIC (Escherichia coli, Escherichia coli KUB No. 5794, AR Bank #450, read-out: MIC): 0.25 µg/mL (≈ 0.332 µM)
MIC (Escherichia coli, Escherichia coli KUB No. 5795, AR Bank #451, read-out: MIC): 0.5 µg/mL (≈ 0.665 µM)
MIC (Escherichia coli, Escherichia coli KUB No. 5796, AR Bank #452, read-out: MIC): 1 µg/mL (≈ 1.33 µM)
MIC (Escherichia coli, Escherichia coli KUB No. 5803, AR Bank #861, read-out: MIC): 2 µg/mL (≈ 2.66 µM)
MIC (Escherichia coli, KUB No. 5558, AR Bank # 61, read-out: MIC): ≤ 0.06 µg/mL
MIC (Escherichia coli, KUB No. 5564, AR Bank # 67, read-out: MIC): 0.12 µg/mL (≈ 0.16 µM)
MIC (Escherichia coli, KUB No. 5566, AR Bank # 69, read-out: MIC): 1 µg/mL (≈ 1.33 µM)
MIC (Escherichia coli, KUB No. 5574, AR Bank # 77, read-out: MIC): ≤ 0.06 µg/mL
MIC (Escherichia coli, KUB No. 5578, AR Bank # 81, read-out: MIC): 0.25 µg/mL (≈ 0.332 µM)
MIC (Escherichia coli, KUB No. 5581, AR Bank # 84, read-out: MIC): 0.5 µg/mL (≈ 0.665 µM)
MIC (Escherichia coli, KUB No. 5582, AR Bank # 85, read-out: MIC): 0.12 µg/mL (≈ 0.16 µM)
MIC (Escherichia coli, KUB No. 5583, AR Bank # 86, read-out: MIC): 0.12 µg/mL (≈ 0.16 µM)
MIC (Escherichia coli, KUB No. 5586, AR Bank # 89, read-out: MIC): ≤ 0.06 µg/mL
MIC (Escherichia coli, KUB No. 5601, AR Bank # 104, read-out: MIC): 1 µg/mL (≈ 1.33 µM)
MIC (Escherichia coli, KUB No. 5611, AR Bank # 114, read-out: MIC): 0.25 µg/mL (≈ 0.332 µM)
MIC (Escherichia coli, KUB No. 5615, AR Bank # 118, read-out: MIC): 2 µg/mL (≈ 2.66 µM)
MIC (Escherichia coli, KUB No. 5616, AR Bank # 119, read-out: MIC): 0.5 µg/mL (≈ 0.665 µM)
MIC (Escherichia coli, KUB No. 5625, AR Bank # 128, read-out: MIC): 2 µg/mL (≈ 2.66 µM)
MIC (Escherichia coli, KUB No. 5634, AR Bank # 137, read-out: MIC): 2 µg/mL (≈ 2.66 µM)
MIC (Escherichia coli, KUB No. 5646, AR Bank # 149, read-out: MIC): 16 µg/mL (≈ 21.3 µM)
MIC (Escherichia coli, KUB No. 5647, AR Bank # 150, read-out: MIC): 4 µg/mL (≈ 5.32 µM)
MIC (Escherichia coli, KUB No. 5648, AR Bank # 151, read-out: MIC): 4 µg/mL (≈ 5.32 µM)
MIC (Escherichia coli, KUB No. 5659, AR Bank # 162, read-out: MIC): 8 µg/mL (≈ 10.6 µM)
MIC (Escherichia coli, KUB No. 5764, AR Bank # 368, read-out: MIC): ≤ 0.06 µg/mL
MIC (Escherichia coli, KUB No. 5765, AR Bank # 369, read-out: MIC): 0.25 µg/mL (≈ 0.332 µM)
MIC (Escherichia coli, KUB No. 5766, AR Bank # 370, read-out: MIC): 0.5 µg/mL (≈ 0.665 µM)
MIC (Escherichia coli, KUB No. 5767, AR Bank # 371, read-out: MIC): 0.5 µg/mL (≈ 0.665 µM)
MIC (Escherichia coli, KUB No. 5768, AR Bank # 372, read-out: MIC): 1 µg/mL (≈ 1.33 µM)
MIC (Escherichia coli, KUB No. 5769, AR Bank # 373, read-out: MIC): ≤ 0.06 µg/mL
MIC (Escherichia coli, KUB No. 5770, AR Bank # 374, read-out: MIC): < 0.06 µg/mL
MIC (Escherichia coli, KUB No. 5774, AR Bank # 378, read-out: MIC): 0.12 µg/mL (≈ 0.16 µM)
MIC (Escherichia coli, KUB No. 5779, AR Bank # 433, read-out: MIC): 0.5 µg/mL (≈ 0.665 µM)
MIC (Escherichia coli, KUB No. 5780, AR Bank # 434, read-out: MIC): 0.5 µg/mL (≈ 0.665 µM)
MIC (Escherichia coli, KUB No. 5781, AR Bank # 435, read-out: MIC): 4 µg/mL (≈ 5.32 µM)
MIC (Escherichia, KUB No. 57, AR Bank # 436 (row cut off)): ≤0.0 µg/mL
MIC (Klebsiella aerogenes, Enterobacter aerogenes, KUB No. 5559, AR Bank # 62, read-out: MIC): ≤ 0.06 µg/mL
MIC (Klebsiella aerogenes, Enterobacter aerogenes, KUB No. 5571, AR Bank # 74, read-out: MIC): ≤ 0.06 µg/mL
MIC (Klebsiella aerogenes, Enterobacter aerogenes, KUB No. 5658, AR Bank # 161, read-out: MIC): 1 µg/mL (≈ 1.33 µM)
MIC (Klebsiella aerogenes, Enterobacter aerogenes, KUB No. 5777, AR Bank # 431, read-out: MIC): 1 µg/mL (≈ 1.33 µM)
MIC (Klebsiella oxytoca, KUB No. 5568, AR Bank # 71, read-out: MIC): ≤ 0.06 µg/mL
MIC (Klebsiella oxytoca, KUB No. 5644, AR Bank # 147, read-out: MIC): 0.12 µg/mL (≈ 0.16 µM)
MIC (Klebsiella oxytoca, KUB No. 5771, AR Bank # 375, read-out: MIC): 0.5 µg/mL (≈ 0.665 µM)
MIC (Klebsiella oxytoca, KUB No. 5776, AR Bank # 380, read-out: MIC): ≤ 0.06 µg/mL
MIC (Klebsiella ozaenae, KUB No. 5593, AR Bank # 96, read-out: MIC): ≤ 0.06 µg/mL
MIC (Klebsiella pnemnonine, KUB No. 5758, AR Bank # 362, read-out: MIC): 0.5 µg/mL (≈ 0.665 µM)
MIC (Klebsiella pneumoniae, KUB No. 5531, AR Bank# 34, read-out: MIC): 0.25 µg/mL (≈ 0.332 µM)
MIC (Klebsiella pneumoniae, KUB No. 5536, AR Bank# 39, read-out: MIC): 0.12 µg/mL (≈ 0.16 µM)
MIC (Klebsiella pneumoniae, KUB No. 5537, AR Bank# 40, read-out: MIC): 0.5 µg/mL (≈ 0.665 µM)
MIC (Klebsiella pneumoniae, KUB No. 5538, AR Bank# 41, read-out: MIC): 2 µg/mL (≈ 2.66 µM)
MIC (Klebsiella pneumoniae, KUB No. 5540, AR Bank# 43, read-out: MIC): 0.25 µg/mL (≈ 0.332 µM)
MIC (Klebsiella pneumoniae, KUB No. 5541, AR Bank# 44, read-out: MIC): 0.5 µg/mL (≈ 0.665 µM)
MIC (Klebsiella pneumoniae, KUB No. 5543, AR Bank# 46, read-out: MIC): 0.25 µg/mL (≈ 0.332 µM)
MIC (Klebsiella pneumoniae, KUB No. 5546, AR Bank# 49, read-out: MIC): 1 µg/mL (≈ 1.33 µM)
MIC (Klebsiella pneumoniae, KUB No. 5563, AR Bank # 66, read-out: MIC): 0.5 µg/mL (≈ 0.665 µM)
MIC (Klebsiella pneumoniae, KUB No. 5565, AR Bank # 68, read-out: MIC): 2 µg/mL (≈ 2.66 µM)
MIC (Klebsiella pneumoniae, KUB No. 5572, AR Bank # 75, read-out: MIC): 0.25 µg/mL (≈ 0.332 µM)
MIC (Klebsiella pneumoniae, KUB No. 5573, AR Bank # 76, read-out: MIC): ≤ 0.06 µg/mL
MIC (Klebsiella pneumoniae, KUB No. 5576, AR Bank # 79, read-out: MIC): 0.12 µg/mL (≈ 0.16 µM)
MIC (Klebsiella pneumoniae, KUB No. 5577, AR Bank # 80, read-out: MIC): 2 µg/mL (≈ 2.66 µM)
MIC (Klebsiella pneumoniae, KUB No. 5584, AR Bank # 87, read-out: MIC): 1 µg/mL (≈ 1.33 µM)
MIC (Klebsiella pneumoniae, KUB No. 5594, AR Bank # 97, read-out: MIC): 1 µg/mL (≈ 1.33 µM)
MIC (Klebsiella pneumoniae, KUB No. 5595, AR Bank # 98, read-out: MIC): 0.12 µg/mL (≈ 0.16 µM)
MIC (Klebsiella pneumoniae, KUB No. 5603, AR Bank # 106, read-out: MIC): 1 µg/mL (≈ 1.33 µM)
MIC (Klebsiella pneumoniae, KUB No. 5604, AR Bank # 107, read-out: MIC): ≤ 0.06 µg/mL
MIC (Klebsiella pneumoniae, KUB No. 5606, AR Bank # 109, read-out: MIC): 0.5 µg/mL (≈ 0.665 µM)
MIC (Klebsiella pneumoniae, KUB No. 5609, AR Bank # 112, read-out: MIC): 2 µg/mL (≈ 2.66 µM)
MIC (Klebsiella pneumoniae, KUB No. 5610, AR Bank # 113, read-out: MIC): 0.5 µg/mL (≈ 0.665 µM)
MIC (Klebsiella pneumoniae, KUB No. 5612, AR Bank # 115, read-out: MIC): 0.5 µg/mL (≈ 0.665 µM)
MIC (Klebsiella pneumoniae, KUB No. 5614, AR Bank # 117, read-out: MIC): 2 µg/mL (≈ 2.66 µM)
MIC (Klebsiella pneumoniae, KUB No. 5617, AR Bank # 120, read-out: MIC): 0.25 µg/mL (≈ 0.332 µM)
MIC (Klebsiella pneumoniae, KUB No. 5622, AR Bank # 125, read-out: MIC): 1 µg/mL (≈ 1.33 µM)
MIC (Klebsiella pneumoniae, KUB No. 5623, AR Bank # 126, read-out: MIC): ≤ 0.06 µg/mL
MIC (Klebsiella pneumoniae, KUB No. 5626, AR Bank # 129, read-out: MIC): 1 µg/mL (≈ 1.33 µM)
MIC (Klebsiella pneumoniae, KUB No. 5632, AR Bank # 135, read-out: MIC): 1 µg/mL (≈ 1.33 µM)
MIC (Klebsiella pneumoniae, KUB No. 5635, AR Bank # 138, read-out: MIC): 1 µg/mL (≈ 1.33 µM)
MIC (Klebsiella pneumoniae, KUB No. 5636, AR Bank # 139, read-out: MIC): 0.12 µg/mL (≈ 0.16 µM)
MIC (Klebsiella pneumoniae, KUB No. 5637, AR Bank # 140, read-out: MIC): 0.12 µg/mL (≈ 0.16 µM)
